According to patent US20240343740A1, “MACROCYCLIC GLUCAGON-LIKE PEPTIDE 1 RECEPTOR AGONISTS” (Eli Lilly and Company, priority 2021, published 2024):
Like-named read-outs stand apart in the source and are kept apart here.

Columns and labels:
[1] = cc_pd bond
human GLP-1R [2] = target: T1, human GLP-1R (Homo sapiens, UniProt P43220); assay: Human GLP-1 Receptor HEK293 cell cAMP assay, 104 fmol/mg GLP-1R expression density; format: cell-based; parameters: expressed in transfected cells; host or cells: HEK293 clonal cell line; settings: HEK293 cell line with 104 fmol/mg expression density of GLP-1R; for EC50: geometric mean, read-out: EC50 nM (SEM, n), intracellular cAMP response, relative EC50; for Emax: read-out: Emax % (SEM, n), intracellular cAMP response
T1 sequence (P43220 24-463): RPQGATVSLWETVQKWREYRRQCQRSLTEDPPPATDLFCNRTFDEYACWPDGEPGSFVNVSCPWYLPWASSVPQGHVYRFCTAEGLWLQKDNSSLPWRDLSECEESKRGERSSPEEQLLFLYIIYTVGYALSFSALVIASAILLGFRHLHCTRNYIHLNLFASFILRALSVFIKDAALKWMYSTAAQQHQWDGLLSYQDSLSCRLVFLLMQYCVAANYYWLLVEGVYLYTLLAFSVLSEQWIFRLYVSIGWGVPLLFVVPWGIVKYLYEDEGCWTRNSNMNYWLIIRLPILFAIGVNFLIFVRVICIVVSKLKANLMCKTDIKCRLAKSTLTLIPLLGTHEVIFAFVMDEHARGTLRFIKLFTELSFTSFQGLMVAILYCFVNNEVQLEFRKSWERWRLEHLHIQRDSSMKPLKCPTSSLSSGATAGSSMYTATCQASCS
Outline: (§1)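 HEK293 clonal lines expressing human GLP-1R, 20-point compound curves, 30 min at 37° C in DMEM with 0.1% casein, 250 μM IBMX, 0.5% DMSO. cAMP by HTRF, converted via standard curve to % of maximal human GLP-1(7-36)NH2 response; relative EC50 and Emax from four-parameter logistic fit.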

human GLP-1R [3] = target: T1, human GLP-1R; assay: Human GLP-1 Receptor HEK293 cell cAMP assay, 581 fmol/mg GLP-1R expression density; format: cell-based; parameters: expressed in transfected cells; host or cells: HEK293 clonal cell line; settings: HEK293 cell line with 581 fmol/mg expression density of GLP-1R; for EC50: geometric mean, read-out: EC50 nM (SEM, n), intracellular cAMP response, relative EC50; for Emax: read-out: Emax % (SEM, n), intracellular cAMP response
Outline: as §1

[4] = percent of maximal response to GLP-1(7-36)NH2, arithmetic mean

Compound: CCOC(=O)Cc1cc(F)c2cc1CCOCc1cc(C#N)ccc1COc1cccc-2n1
- ring closure, isolated yield ([1]; from CCOC(=O)Cc1cc(F)c(B2OC(C)(C)C(C)(C)O2)cc1CCOCc1cc(C#N)ccc1COc1cccc(Cl)n1, 14-membered ring, XPhos Pd G2/K3PO4, THF/water, 25.0 mM, 70.0 °C, 0.5 h): 34%

Compound: CCOC(=O)Cc1cc(F)c2cc1CCOCc1cc(ccc1Cl)COc1cccc-2n1
- ring closure, isolated yield ([1]; from CCOC(=O)Cc1cc(F)c(B2OC(C)(C)C(C)(C)O2)cc1CCOCc1cc(COc2cccc(Cl)n2)ccc1Cl, 15-membered ring, XPhos Pd G2/K3PO4, THF/water, 27.0 mM, 60.0 °C, 1.5 h): 20%

Compound: CCOC(=O)Cc1cc(F)c2cc1CCOc1cc(C#N)ccc1COc1cccc-2n1
- ring closure, isolated yield ([1]; from CCOC(=O)Cc1cc(F)c(Br)cc1CCOc1cc(C#N)ccc1COc1cccc(Br)n1, 13-membered ring, Me6Sn2/Pd(dppf)Cl2, 1,4-dioxane, 50.0 mM, 100.0 °C, 3.0 h): 41%

Compound: CCOC(=O)Cc1cc(F)c2cc1COCCc1cc(Cl)cc(F)c1COc1cccc-2n1
- ring closure, isolated yield ([1]; from CCOC(=O)Cc1cc(F)c(Br)cc1COCCc1cc(Cl)cc(F)c1COc1cccc(Cl)n1, 14-membered ring, B2pin2/KOPiv/XPhos Pd G2, then K3PO4, THF/water, 24.0 mM, 55.0 °C, 6.0 h, 2 steps): 27%

Compound: CCOC(=O)Cc1cc(F)c2cc1COCc1cc(Cl)ccc1COc1cccc-2n1
- ring closure, isolated yield ([1]; from CCOC(=O)Cc1cc(F)c(Br)cc1COCc1cc(Cl)ccc1COc1cccc(Cl)n1, 13-membered ring, B2neo2/KOPiv/XPhos Pd G2, then K3PO4, THF, then THF/water, 25.0 mM, 55.0 °C, 5.25 h, 2 steps): 32%

Compound: CCOC(=O)Cc1cc(F)c2cc1OCCCc1cc(C#N)ccc1CNc1cccc-2n1
- ring closure, isolated yield ([1]; from CCOC(=O)Cc1cc(F)c(B2OCC(C)(C)CO2)cc1OCCCc1cc(C#N)ccc1CNc1cccc(Br)n1, 14-membered ring, PdCl2(dtbpf)/K3PO4, 1,4-dioxane/water, 43.0 mM, 70.0 °C, 2.0 h): 49%

Compound: CCOC(=O)Cc1cc(F)c2cc1OCCCc1cc(C#N)ccc1COc1cccc-2n1
- ring closure, isolated yield ([1]; from CCOC(=O)Cc1cc(F)c(Br)cc1OCCCc1cc(C#N)ccc1COc1cccc(Br)n1, 14-membered ring, Me6Sn2/Pd(PPh3)4, 1,4-dioxane, 23.0 mM, 90.0 °C, 60.0 h): 47%

Compound: CCOC(=O)Cc1cc(F)c2cc1OCCCc1cc(C#N)cnc1COc1cccc-2n1
- ring closure, isolated yield ([1]; from CCOC(=O)Cc1cc(F)c(Br)cc1OCCCc1cc(C#N)cnc1COc1cccc(Br)n1, 14-membered ring, Me6Sn2/CsF/XPhos Pd G2, 1,4-dioxane, 22.0 mM, 100.0 °C, 18.0 h): 49%

Compound: CCOC(=O)Cc1cc(F)c2cc1OCCCc1cc(ccc1C#N)COc1cccc-2n1
- ring closure, isolated yield ([1]; from CCOC(=O)Cc1cc(F)c(B2OC(C)(C)C(C)(C)O2)cc1OCCCc1cc(COc2cccc(Br)n2)ccc1C#N, 15-membered ring, PdCl2(dtbpf)/K3PO4, 1,4-dioxane/water, 27.0 mM, 50.0 °C, 0.25 h): 38%

Compound: CCOC(=O)Cc1cc(F)c2cc1OCCOc1cc(C#N)ccc1COc1cccc-2n1
- ring closure, isolated yield ([1]; from CCOC(=O)Cc1cc(F)c(Br)cc1OCCOc1cc(C#N)ccc1COc1cccc(Br)n1, 14-membered ring, B2pin2/KOAc/Pd(dppf)Cl2, then PdCl2/XPhos/K3PO4, THF/water, 8.9 mM, 45.0 °C, 16.0 h, 2 steps): 32%

Compound: CCOC(=O)Cc1ccc2cc1COCC(F)(F)c1cc(C#N)ccc1COc1cccc-2n1
- ring closure, isolated yield ([1]; from CCOC(=O)Cc1ccc(Br)cc1COCC(F)(F)c1cc(C#N)ccc1COc1cccc(Br)n1, 14-membered ring, B2pin2/KOAc/Pd(dppf)Cl2, then XPhos Pd G2/K3PO4, 1,4-dioxane/water, 55.0 mM, 60.0 °C, 2.0 h, 2 steps): 21%

Compound: COC(=O)Cc1ccc2cc1COCCc1cc(C#N)ccc1COc1ccnc-2n1
- ring closure, isolated yield ([1]; from COC(=O)Cc1ccc(B2OC(C)(C)C(C)(C)O2)cc1COCCc1cc(C#N)ccc1COc1ccnc(Cl)n1, 14-membered ring, XPhos Pd G2/K3PO4, THF/water, 36.0 mM, 50.0 °C, 6.0 h): 22%

Compound: COC(=O)Cc1ccc2cc1COCCc1cc(ccc1C#N)COc1cccc-2n1
- ring closure, isolated yield ([1]; from COC(=O)Cc1ccc(B2OC(C)(C)C(C)(C)O2)cc1COCCc1cc(COc2cccc(Cl)n2)ccc1C#N, 15-membered ring, XPhos Pd(crotyl)Cl/K3PO4, THF/water, 33.0 mM, 50.0 °C, 0.83 h): 61%

Compound: COC(=O)Cc1ccc2cc1OCCCc1cc(C#N)ccc1COc1cccc-2n1
- ring closure, isolated yield ([1]; from COC(=O)Cc1ccc(B2OC(C)(C)C(C)(C)O2)cc1OCCCc1cc(C#N)ccc1COc1cccc(Br)n1, 14-membered ring, XPhos Pd G2/K3PO4, THF/water, 57.0 mM, 45.0 °C, 2.25 h): 82%

Compound: COC(=O)Cc1ccc2cc1OCCCc1cc(Cl)ccc1COc1cccc-2n1
- ring closure, isolated yield ([1]; from COC(=O)Cc1ccc(B2OC(C)(C)C(C)(C)O2)cc1OCCCc1cc(Cl)ccc1COc1cccc(Br)n1, 14-membered ring, XPhos Pd G2/K3PO4, THF/water, 9.2 mM, 40.0 °C, 15.0 h): 74%

Compound: O=C(O)c1ccc2nc(Cc3ccc4cc3OCCCc3cc(-c5cnn(C6COC6)c5)ccc3COc3cccc-4n3)n(C[C@@H]3CCO3)c2c1 [Example 76, (S)-1-(Oxetan-2-ylmethyl)-2-((5^4-(1-(oxetan-3-yl)-1H-pyrazol-4-yl)-3,9-dioxa-2(2,6)-pyridina-1(1,3),5(1,2)-dibenzenacyclononaphane-1^4-yl)methyl)-1H-benzo[d]imidazole-6-carboxylic acid]
- EC50 (human GLP-1R [2]): 359 nM
- Emax (human GLP-1R [2]; [4]): 78.2%
- EC50 (human GLP-1R [3]): 102 nM
- Emax (human GLP-1R [3]; [4]): 99.9%

Compound: CN(C)C(=O)c1ccc(-c2ccc3c(c2)CCCOc2cc(ccc2Cc2nc4ccc(C(=O)O)cc4n2C[C@@H]2CCO2)-c2cccc(n2)OC3)cc1 [Example 77, (S)-2-((5^4-(4-(Dimethylcarbamoyl)phenyl)-3,9-dioxa-2(2,6)-pyridina-1(1,3),5(1,2)-dibenzenacyclononaphane-1^4-yl)methyl)-1-(oxetan-2-ylmethyl)-1H-benzo[d]imidazole-6-carboxylic acid]
- EC50 (human GLP-1R [2]): 724 nM
- Emax (human GLP-1R [2]; [4]): 83%
- EC50 (human GLP-1R [3]): 193 nM
- Emax (human GLP-1R [3]; [4]): 107%

Compound: Nc1cc(-c2ccc3c(c2)CCCOc2cc(ccc2Cc2nc4ccc(C(=O)O)cc4n2C[C@@H]2CCO2)-c2cccc(n2)OC3)ccn1 [Example 78, (S)-2-((5^4-(2-Aminopyridin-4-yl)-3,9-dioxa-2(2,6)-pyridina-1(1,3),5(1,2)-dibenzenacyclononaphane-1^4-yl)methyl)-1-(oxetan-2-ylmethyl)-1H-benzo[d]imidazole-6-carboxylic acid]
- EC50 (human GLP-1R [2]): 248 nM
- Emax (human GLP-1R [2]; [4]): 74.1%
- EC50 (human GLP-1R [3]): 95.8 nM
- Emax (human GLP-1R [3]; [4]): 99.8%

Compound: Cn1ccc(-c2ccc3c(c2)CCCOc2cc(ccc2Cc2nc4ccc(C(=O)O)cc4n2C[C@@H]2CCO2)-c2cccc(n2)OC3)cc1=O [Example 79, (S)-2-((5^4-(1-Methyl-2-oxo-1,2-dihydropyridin-4-yl)-3,9-dioxa-2(2,6)-pyridina-1(1,3),5(1,2)-dibenzenacyclononaphane-1^4-yl)methyl)-1-(oxetan-2-ylmethyl)-1H-benzo[d]imidazole-6-carboxylic acid]
- EC50 (human GLP-1R [2]): 648 nM
- Emax (human GLP-1R [2]; [4]): 9.53%
- EC50 (human GLP-1R [3]): 369 nM
- Emax (human GLP-1R [3]; [4]): 34.7%

Compound: O=C(O)c1ccc2nc(Cc3ccc4cc3OCCCc3cc(-c5ccc(=O)[nH]c5)ccc3COc3cccc-4n3)n(C[C@@H]3CCO3)c2c1 [Example 80, (S)-1-(Oxetan-2-ylmethyl)-2-((5^4-(6-oxo-1,6-dihydropyridin-3-yl)-3,9-dioxa-2(2,6)-pyridina-1(1,3),5(1,2)-dibenzenacyclononaphane-1^4-yl)methyl)-1H-benzo[d]imidazole-6-carboxylic acid]
- EC50 (human GLP-1R [2]): 303 nM
- Emax (human GLP-1R [2]; [4]): 56%
- EC50 (human GLP-1R [3]): 130 nM
- Emax (human GLP-1R [3]; [4]): 84.1%

Compound: (S)-2-((5^4-Cyano-1^6,2^3-difluoro-3,8-dioxa-2(2,6)-pyridina-1(1,3),5(1,2)-dibenzenacyclononaphane-1^4-yl)methyl)-4-(2-methoxyethoxy)-1-(oxetan-2-ylmethyl)-1H-benzo[d]imidazole-6-carboxylic acid [Example 60]
- EC50 (human GLP-1R [2]): 2.99 nM
- Emax % (SEM, n), intracellular cAMP response (human GLP-1R [2]; [4]): 87.9%
- EC50 (human GLP-1R [3]): 0.938 nM
- Emax % (SEM, n), intracellular cAMP response (human GLP-1R [3]; [4]): 109%
